From patent US9266857B2, “Bicyclic AZA compounds as muscarinic M1 receptor agonists” (Heptares Therapeutics Limited, priority 2012, dated 2016)
Read-outs that look alike come from different tables or passages of the source.

Legend:
[1] = biological target: T1, human muscarinic M4 receptor (Homo sapiens, UniProt P08173); experiment: Alphascreen Surefire phospho-ERK1/2 functional assay, M4; type: cell-based; settings: for EC50: CHO cells stably expressing human M4, phospho-ERK1/2, read-out: pEC50 M4 (converted); for Emax: CHO
T1 construct: expressed in transfected cells
T1 sequence (P08173 1-479): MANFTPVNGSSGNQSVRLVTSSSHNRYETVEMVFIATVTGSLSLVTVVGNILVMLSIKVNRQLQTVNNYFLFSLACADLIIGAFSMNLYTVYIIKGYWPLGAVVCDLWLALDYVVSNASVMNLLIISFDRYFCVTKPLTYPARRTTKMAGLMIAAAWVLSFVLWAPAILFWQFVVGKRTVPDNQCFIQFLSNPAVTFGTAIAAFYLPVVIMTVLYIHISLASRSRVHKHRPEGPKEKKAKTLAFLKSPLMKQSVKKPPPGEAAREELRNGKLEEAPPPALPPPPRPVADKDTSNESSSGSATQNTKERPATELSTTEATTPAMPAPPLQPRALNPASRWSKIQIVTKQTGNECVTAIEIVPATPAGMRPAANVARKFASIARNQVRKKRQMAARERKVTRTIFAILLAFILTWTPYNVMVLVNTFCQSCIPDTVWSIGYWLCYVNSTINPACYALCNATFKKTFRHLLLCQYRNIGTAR
Method: (§1) ERK1/2 phosphorylation is a downstream consequence of both Gq/11 and Gi/o protein coupled receptor activation, making it highly suitable for the assessment of M1, M3 (Gq/11 coupled) and M2, M4 receptors (Gi/o coupled), rather than using different assay formats for different receptor subtypes. CHO cells stably expressing the human muscarinic M1, M2, M3 or M4 receptor were plated (25K/well) onto 96-well tissue culture plates in MEM-alpha+10% dialysed FBS. Once adhered, cells were serum-starved overnight. Agonist stimulation was performed by the addition of 5 μL agonist to the cells for 5 min (37° C.). Media was removed and 50 μL of lysis buffer added. After 15 min, a 4 μL sample was transferred to 384-well plate and 7 μL of detection mixture added. Plates were incubated for 2 h with gentle agitation in the dark and then read on a PHERAstar plate reader.
(§2) pEC50 and Emax figures were calculated from the resulting data for each receptor subtype.

[2] = biological target: T2, human muscarinic M3 receptor (Homo sapiens, UniProt P20309); experiment: Alphascreen Surefire phospho-ERK1/2 functional assay, M3; type: cell-based; settings: for EC50: CHO cells stably expressing human M3, phospho-ERK1/2, read-out: pEC50 M3 (converted); for Emax: CHO, read-out: % Emax cf. ACh, M3
T2 construct: expressed in transfected cells
T2 sequence (P20309 whole entry): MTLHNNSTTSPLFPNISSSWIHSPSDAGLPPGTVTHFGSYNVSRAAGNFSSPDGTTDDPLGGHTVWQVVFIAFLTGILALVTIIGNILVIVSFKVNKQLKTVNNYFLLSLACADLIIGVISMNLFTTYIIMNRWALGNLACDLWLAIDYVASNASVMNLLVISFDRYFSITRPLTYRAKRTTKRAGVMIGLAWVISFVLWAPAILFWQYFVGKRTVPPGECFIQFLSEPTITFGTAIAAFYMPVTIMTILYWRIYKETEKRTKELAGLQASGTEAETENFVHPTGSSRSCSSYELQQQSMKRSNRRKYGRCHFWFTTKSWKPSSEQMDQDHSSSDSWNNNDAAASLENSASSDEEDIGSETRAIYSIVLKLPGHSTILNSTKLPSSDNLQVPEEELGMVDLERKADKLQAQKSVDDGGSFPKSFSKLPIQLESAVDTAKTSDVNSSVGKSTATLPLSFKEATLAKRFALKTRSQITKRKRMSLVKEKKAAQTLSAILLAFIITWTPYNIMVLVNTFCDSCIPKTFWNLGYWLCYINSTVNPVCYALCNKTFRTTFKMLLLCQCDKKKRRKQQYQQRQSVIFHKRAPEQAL
Method: as §1, §2

[3] = biological target: T3, human muscarinic M1 receptor (Homo sapiens, UniProt P11229); experiment: Alphascreen Surefire phospho-ERK1/2 functional assay, M1; type: cell-based; settings: for EC50: CHO cells stably expressing human M1, phospho-ERK1/2, read-out: pEC50 M1 (converted); for Emax: CHO
T3 construct: expressed in transfected cells
T3 sequence (P11229 1-460): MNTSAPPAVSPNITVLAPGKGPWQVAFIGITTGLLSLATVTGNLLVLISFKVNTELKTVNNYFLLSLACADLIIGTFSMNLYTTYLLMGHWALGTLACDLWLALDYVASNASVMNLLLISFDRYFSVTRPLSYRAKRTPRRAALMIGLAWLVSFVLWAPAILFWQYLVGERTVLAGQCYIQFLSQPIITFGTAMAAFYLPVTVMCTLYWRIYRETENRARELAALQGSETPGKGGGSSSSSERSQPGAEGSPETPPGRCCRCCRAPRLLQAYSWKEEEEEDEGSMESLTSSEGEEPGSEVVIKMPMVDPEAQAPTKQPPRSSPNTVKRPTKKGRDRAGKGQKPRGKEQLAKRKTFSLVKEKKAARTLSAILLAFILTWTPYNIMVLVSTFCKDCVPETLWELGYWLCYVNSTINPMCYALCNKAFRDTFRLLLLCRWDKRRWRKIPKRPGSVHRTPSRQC
Method: as §1, §2

[4] = biological target: T4, human muscarinic M2 receptor (Homo sapiens, UniProt P08172); experiment: Alphascreen Surefire phospho-ERK1/2 functional assay, M2; type: cell-based; settings: for EC50: CHO cells stably expressing human M2, phospho-ERK1/2, read-out: pEC50 M2 (converted); for Emax: CHO, read-out: % Emax cf. ACh, M2
T4 construct: expressed in transfected cells
T4 sequence (P08172 1-466): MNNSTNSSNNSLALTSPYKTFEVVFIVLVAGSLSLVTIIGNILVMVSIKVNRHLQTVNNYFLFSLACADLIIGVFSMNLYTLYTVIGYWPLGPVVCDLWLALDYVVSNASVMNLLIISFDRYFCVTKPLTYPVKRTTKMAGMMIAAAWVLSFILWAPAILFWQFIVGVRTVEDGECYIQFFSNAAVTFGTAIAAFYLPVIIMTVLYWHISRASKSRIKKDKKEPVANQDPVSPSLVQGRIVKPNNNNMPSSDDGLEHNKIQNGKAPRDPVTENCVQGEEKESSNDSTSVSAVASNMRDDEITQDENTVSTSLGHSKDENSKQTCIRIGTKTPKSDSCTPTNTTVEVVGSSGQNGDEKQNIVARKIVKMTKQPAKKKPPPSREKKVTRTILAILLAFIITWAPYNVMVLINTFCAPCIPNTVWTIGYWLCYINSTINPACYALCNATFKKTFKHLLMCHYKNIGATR
Method: as §1, §2

[5] = tested on: fEPSPs in the CA1 region of rat hippocampal slices; experiment: CA1 cell firing, fEPSPs in hippocampal slices; type: cell-based; settings: CA1 fEPSP amplitude, 6 slices averaged
Method: Rat hippocampal slices of 400 μm thickness were cut in chilled (<4° C.) artificial cerebrospinal fluid (aCSF, composition in mM: NaCl 127, KCl 1.6, KH2PO4 1.24, MgSO4 1.3, CaCl2 2.4, NaHCO3 26 and D-glucose 10) using vibratome. Slices were maintained in oxygenated (95% O2/5% CO2) aCSF at room temperature for at least 1 hr prior to electrophysiological recording, after which they were transferred to an interface chamber and constantly perfused with warmed (30° C.) oxygenated aCSF at a flow rate of 1.5-3 ml.min-1. Schaffer collaterals were then stimulated (1-20 V, 0.1 ms pulse width, 0.033 Hz) with a concentric bipolar electrode to evoke field excitatory post synaptic potentials (fEPSPs) recorded from the stratum radiatum of the CA1 region. Experiments were performed to examine the effect of compound compared to 1 μM carbachol (CCh), on the amplitude of fEPSPs in the CA1 region of rat hippocampal slices. 1 μM CCh was initially applied until steady-state, followed by wash, before performing a five point cumulative concentration-response to compound. Each compound was tested on 6 slices and results averaged. Drug preparation; compound was dissolved in 100% DMSO at a stock concentration of 30 mM, and diluted according to requirements, carbamoylcholine chloride (CCh) was purchased from Sigma (Cat#C4382) and dissolved at a stock concentration of 1 mM in ddH2O.

[6] = tested on: scopolamine-induced amnesia; experiment: Passive avoidance, scopolamine-induced amnesia; type: in vivo
Method: Studies were carried out as described previously by Foley et al., (2004) Neuropsychopharmacology. In the passive avoidance task scopolamine administration (1 mg/kg, i.p.) at 6 hours following training rendered animals amnesic of the paradigm. A dose range of 3, 10, and 30 mg/kg (po) free base, administered 90 minutes prior to the training period via oral gavage, was examined.

[7] = read-out: % Emax cf. ACh, M4, CHO cells stably expressing human M4, relative to ACh
[8] = read-out: % Emax cf. ACh, M1, CHO cells stably expressing human M1, relative to ACh

Structure (SMILES)	EC50 [1] [nM]	Emax ([1]; read-out: % Emax cf. ACh, M4) [%]	EC50 [2] [nM]	Emax [2] [%]	EC50 [3] [nM]	Emax ([3]; read-out: % Emax cf. ACh, M1) [%]	EC50 [4] [nM]	Emax [4] [%]	Emax [1, 7] [%]	Emax [3, 8] [%]	EC50 [5] [nM]	reversal of scopolamine-induced amnesia of the passive avoidance paradigm ([6]; 3, 10 and 30 mg/kg po)	ED50 ([6]; po, 90 minutes prior to training, scopolamine 1 mg/kg i.p., read-out: approximate ED50, reversal of scopolamine-induced amnesia) [mg/kg]
CC#CCOC(=O)N1C2CCC1CC(N1CCC(C(=O)NC3(C)CCC3)CC1)C2 (single isomer, unassigned) [Example 3 - Isomer 2, but-2-yn-1-yl 3-{4-[(1-methylcyclobutyl)carbamoyl]piperidin-1-yl}-8-azabicyclo[3.2.1]octane-8-carboxylate]	851	–	> 20000	2	363	–	> 20000	10	65	109	–	–	–
CCOC(=O)N1CCC2(CC(N3CCC(C(=O)NC4(C)CCC4)CC3)C2)C1 (single isomer, unassigned) [Example 9 - Isomer 2, ethyl 2-{4-[(1-methylcyclobutyl)carbamoyl]piperidin-1-yl}-6-azaspiro[3.4]octane-6-carboxylate]	182	–	> 20000	9	36.3	–	> 20000	15	66	100	5700	reverse scopolamine-induced amnesia of the paradigm in a dose-dependent manner	~10

Continued, in another order:

EC50 [1] [nM]	Emax ([1]; read-out: % Emax cf. ACh, M4) [%]	EC50 [2] [nM]	Emax [2] [%]	EC50 [3] [nM]	Emax ([3]; read-out: % Emax cf. ACh, M1) [%]	EC50 [4] [nM]	Emax [4] [%]	Structure (SMILES)	Emax [1, 7] [%]	Emax [3, 8] [%]	EC50 [5] [nM]	reversal of scopolamine-induced amnesia of the passive avoidance paradigm ([6]; 3, 10 and 30 mg/kg po)	ED50 ([6]; po, 90 minutes prior to training, scopolamine 1 mg/kg i.p., read-out: approximate ED50, reversal of scopolamine-induced amnesia) [mg/kg]
52.5	44	> 20000	39	15.8	139	> 20000	7	C#CCOC(=O)N1CC2(CCC(N3CCC(C(=O)NC4(C)CCC4)CC3)C2)C1 (racemic) [Example 13 - racemic, prop-2-yn-1-yl 6-{4-[(1-methylcyclobutyl)carbamoyl]piperidin-1-yl}-2-azaspiro[3.4]octane-2-carboxylate]	–	–	–	–	–
339	42	> 20000	3	155	93	> 20000	10	CC#CCOC(=O)N1CCC2(CC(N3CCC(C(=O)NC4(C)CCC4)CC3)C2)C1 (mixture of isomers) [Example 10 - mixture of diastereomers, but-2-yn-1-yl 2-{4-[(1-methylcyclobutyl)carbamoyl]piperidin-1-yl}-6-azaspiro[3.4]octane-6-carboxylate]	–	–	–	–	–
53.7	49	> 20000	78	35.5	141	> 20000	8	CCOC(=O)N1CC2(CCC(N3CCC(C(=O)NC4(C)CCC4)CC3)C2)C1 (racemic) [Example 12 - racemic, ethyl 6-{4-[(1-methylcyclobutyl)carbamoyl]piperidin-1-yl}-2-azaspiro[3.4]octane-2-carboxylate]	–	–	–	–	–
